The numbers were not newly measured in patent US20090062244A1, “PHARMACEUTICAL COMPOSITION” (priority 2007, published 2009), which cites them from elsewhere.

For this series the following is noted: room temperature.

In the case of `O=C(OOC(=O)c1ccccc1)c1ccccc1` [benzoyl peroxide], the “Solubility in 95% alcohol compared with absolute alcohol” value is on record as “several times lower”.
